The term EC80 denotes the concentration at which the effect reaches the 80% level. Low readings indicate greater potency, high ones weaker potency.

Holding throughout (test): PathHunter β-arrestin assay
What all share (assay type): cell-based

Experiment [1] deals with T1, PTGIR (Homo sapiens, UniProt P43119).
T1 construct: purchased Eurofins DiscoverX (PathHunter gpcrMAX)
As to conditions: screen, control agonist; CHO, 37C, 2HR.

The target in experiment [2] is T2, P2RY12 (Homo sapiens, UniProt Q9H244).
T2 construct: purchased Eurofins DiscoverX (PathHunter gpcrMAX)
T2 sequence (Q9H244 whole entry, one chain of several): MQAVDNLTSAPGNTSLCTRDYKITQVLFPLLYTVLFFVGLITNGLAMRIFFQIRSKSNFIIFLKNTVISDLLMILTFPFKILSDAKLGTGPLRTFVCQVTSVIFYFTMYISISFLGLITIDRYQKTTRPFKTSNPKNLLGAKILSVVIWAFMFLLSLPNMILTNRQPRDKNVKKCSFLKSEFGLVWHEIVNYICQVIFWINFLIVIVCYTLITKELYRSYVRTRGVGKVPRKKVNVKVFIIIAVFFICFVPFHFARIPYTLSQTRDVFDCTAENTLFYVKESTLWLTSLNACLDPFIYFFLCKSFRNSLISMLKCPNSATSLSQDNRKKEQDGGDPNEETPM
As to conditions: screen, control agonist; CHO, RT, 2HR.

In experiment [3] the target is T3, P2RY1 (Homo sapiens, UniProt P47900).
T3 construct: purchased Eurofins DiscoverX (PathHunter gpcrMAX)
T3 sequence (P47900 whole entry): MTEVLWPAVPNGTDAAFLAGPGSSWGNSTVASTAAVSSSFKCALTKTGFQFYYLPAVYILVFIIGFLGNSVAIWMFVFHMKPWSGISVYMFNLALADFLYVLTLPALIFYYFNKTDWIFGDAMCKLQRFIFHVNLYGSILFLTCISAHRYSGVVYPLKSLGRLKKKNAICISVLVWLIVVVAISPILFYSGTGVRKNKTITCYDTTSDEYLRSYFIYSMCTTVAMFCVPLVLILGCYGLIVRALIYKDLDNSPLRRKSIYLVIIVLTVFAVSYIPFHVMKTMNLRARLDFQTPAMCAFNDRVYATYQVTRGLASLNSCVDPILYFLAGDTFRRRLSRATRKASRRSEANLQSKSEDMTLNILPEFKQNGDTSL
As to conditions: screen, control agonist; U2OS, RT, 2HR.

In experiment [4] the target is T4, OXER1 (Homo sapiens, UniProt Q8TDS5).
T4 construct: purchased Eurofins DiscoverX (PathHunter gpcrMAX)
Conditions: screen, control agonist; CHO, RT, 2HR.

The target in experiment [5] is T5, P2RY11 (Homo sapiens, UniProt Q96G91).
T5 construct: purchased Eurofins DiscoverX (PathHunter gpcrMAX)
T5 sequence (Q96G91 whole entry, one chain of several): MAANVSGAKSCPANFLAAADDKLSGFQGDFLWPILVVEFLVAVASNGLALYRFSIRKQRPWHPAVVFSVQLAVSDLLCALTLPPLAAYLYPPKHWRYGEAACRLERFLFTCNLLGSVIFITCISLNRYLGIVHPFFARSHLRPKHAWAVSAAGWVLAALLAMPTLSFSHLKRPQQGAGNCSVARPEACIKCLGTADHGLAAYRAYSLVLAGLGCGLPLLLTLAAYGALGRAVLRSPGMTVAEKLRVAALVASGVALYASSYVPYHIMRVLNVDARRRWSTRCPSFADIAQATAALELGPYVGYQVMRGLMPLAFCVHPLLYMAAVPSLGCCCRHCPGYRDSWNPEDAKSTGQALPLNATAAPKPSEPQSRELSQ
As to conditions: screen, control agonist; CHO, 37C, 2HR.

The target in experiment [6] is T6, TBXA2R (Homo sapiens, UniProt P21731).
T6 construct: purchased Eurofins DiscoverX (PathHunter gpcrMAX)
As to conditions: screen, control agonist; U2OS, 37C, 2HR.

The target of experiment [7] is T7, PTAFR (Homo sapiens, UniProt P25105).
T7 construct: purchased Eurofins DiscoverX (PathHunter gpcrMAX)
T7 sequence (P25105 whole entry): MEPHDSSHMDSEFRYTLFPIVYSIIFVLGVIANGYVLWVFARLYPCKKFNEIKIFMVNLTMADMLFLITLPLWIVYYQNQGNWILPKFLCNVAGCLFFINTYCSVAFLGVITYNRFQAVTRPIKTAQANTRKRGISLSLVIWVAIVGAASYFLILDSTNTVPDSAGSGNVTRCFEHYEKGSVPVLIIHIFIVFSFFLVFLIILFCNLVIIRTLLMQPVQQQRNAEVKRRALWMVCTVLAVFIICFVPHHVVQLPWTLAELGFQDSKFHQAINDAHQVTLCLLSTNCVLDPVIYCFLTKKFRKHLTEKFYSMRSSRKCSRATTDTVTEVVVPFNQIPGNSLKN
Conditions: screen, control agonist; CHO, 37C, 2HR.

In experiment [8] the target is T8, PTGER2 (Homo sapiens, UniProt P43116).
T8 construct: purchased Eurofins DiscoverX (PathHunter gpcrMAX)
T8 sequence (P43116 whole entry): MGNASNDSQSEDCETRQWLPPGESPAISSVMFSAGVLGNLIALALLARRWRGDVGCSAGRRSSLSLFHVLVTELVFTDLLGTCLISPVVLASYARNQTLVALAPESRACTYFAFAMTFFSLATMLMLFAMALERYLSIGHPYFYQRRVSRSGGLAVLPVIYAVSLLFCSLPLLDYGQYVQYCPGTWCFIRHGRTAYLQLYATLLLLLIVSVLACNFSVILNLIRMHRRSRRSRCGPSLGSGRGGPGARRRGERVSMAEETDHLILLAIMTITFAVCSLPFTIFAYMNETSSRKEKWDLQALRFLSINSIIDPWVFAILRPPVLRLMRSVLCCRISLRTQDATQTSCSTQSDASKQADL
Conditions: screen, control agonist; CHO, 37C, 2HR.

The target of experiment [9] is PTGER4 (Homo sapiens, UniProt P35408). As to conditions: control agonist. As to the method: (§1) Follow up experiments were prioritized based on the difference between S/N and CoV. Targets with a >5-fold difference between S/N and CoV were investigated for their potential contribution to the AMB-FUBINACA toxidrome with 10-point concentration-response curves generated in technical replicate (range 1.5–30 μM) using the EC80 of the relevant agonist, where applicable in antagonist mode. Simultaneous agonist and antagonist curves were run in parallel to ensure reliability of the assay (see Supplementary Table 2), with both RC50 and signal to background aligning with historical averages, and Z' >0.5. RC50 was estimated using a four-parameter fit (CBIS Data Analysis Suite, ChemInnovation, San Diego, CA) on normalized data.
Sequence of PTGER4 (P35408 whole entry): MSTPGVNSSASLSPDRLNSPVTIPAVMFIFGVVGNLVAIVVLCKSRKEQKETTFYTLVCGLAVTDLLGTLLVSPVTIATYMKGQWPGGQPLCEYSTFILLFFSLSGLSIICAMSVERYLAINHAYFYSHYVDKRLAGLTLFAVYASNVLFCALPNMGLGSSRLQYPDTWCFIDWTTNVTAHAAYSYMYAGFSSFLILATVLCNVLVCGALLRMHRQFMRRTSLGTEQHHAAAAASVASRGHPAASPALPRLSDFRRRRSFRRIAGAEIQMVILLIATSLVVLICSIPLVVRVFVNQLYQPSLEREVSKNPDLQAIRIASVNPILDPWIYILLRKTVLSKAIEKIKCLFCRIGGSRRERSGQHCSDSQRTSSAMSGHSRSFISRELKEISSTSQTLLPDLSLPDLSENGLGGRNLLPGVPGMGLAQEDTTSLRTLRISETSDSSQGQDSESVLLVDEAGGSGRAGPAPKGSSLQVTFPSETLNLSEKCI

The target of experiment [10] is T9, P2RY2 (Homo sapiens, UniProt P41231).
T9 construct: purchased Eurofins DiscoverX (PathHunter gpcrMAX)
T9 sequence (P41231 whole entry): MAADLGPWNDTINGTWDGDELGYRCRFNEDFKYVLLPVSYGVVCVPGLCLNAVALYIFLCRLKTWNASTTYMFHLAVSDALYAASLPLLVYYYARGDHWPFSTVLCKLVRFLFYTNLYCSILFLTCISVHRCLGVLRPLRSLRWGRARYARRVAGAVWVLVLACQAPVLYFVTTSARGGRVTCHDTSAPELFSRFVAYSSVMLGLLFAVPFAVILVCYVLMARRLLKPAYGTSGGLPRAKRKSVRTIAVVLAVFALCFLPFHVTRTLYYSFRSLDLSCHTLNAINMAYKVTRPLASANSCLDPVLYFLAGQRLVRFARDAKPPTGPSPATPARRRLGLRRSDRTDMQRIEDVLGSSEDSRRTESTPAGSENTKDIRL
As to conditions: screen, control agonist; U2OS, 37C, 2HR.

For experiment [11], the target named is T10, P2RY4 (Homo sapiens, UniProt P51582).
T10 construct: purchased Eurofins DiscoverX (PathHunter gpcrMAX)
T10 sequence (P51582 whole entry): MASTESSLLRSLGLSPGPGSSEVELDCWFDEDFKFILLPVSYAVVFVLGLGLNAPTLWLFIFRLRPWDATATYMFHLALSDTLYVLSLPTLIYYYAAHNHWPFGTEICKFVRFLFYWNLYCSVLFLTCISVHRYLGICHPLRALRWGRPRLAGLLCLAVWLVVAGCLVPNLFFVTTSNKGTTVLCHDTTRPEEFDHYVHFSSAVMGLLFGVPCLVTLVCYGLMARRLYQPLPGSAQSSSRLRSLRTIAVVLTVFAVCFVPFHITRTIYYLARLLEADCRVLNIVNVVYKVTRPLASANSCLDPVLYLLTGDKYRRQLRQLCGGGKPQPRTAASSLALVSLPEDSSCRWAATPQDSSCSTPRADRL
Conditions: screen, control agonist; CHO, 37C, 2HR.

In experiment [12] the target is P2RY6 (Homo sapiens, UniProt Q15077). Conditions: screen, control agonist; CHO, 37C, 2HR. As to the method: as §1
Sequence of P2RY6 (Q15077 whole entry): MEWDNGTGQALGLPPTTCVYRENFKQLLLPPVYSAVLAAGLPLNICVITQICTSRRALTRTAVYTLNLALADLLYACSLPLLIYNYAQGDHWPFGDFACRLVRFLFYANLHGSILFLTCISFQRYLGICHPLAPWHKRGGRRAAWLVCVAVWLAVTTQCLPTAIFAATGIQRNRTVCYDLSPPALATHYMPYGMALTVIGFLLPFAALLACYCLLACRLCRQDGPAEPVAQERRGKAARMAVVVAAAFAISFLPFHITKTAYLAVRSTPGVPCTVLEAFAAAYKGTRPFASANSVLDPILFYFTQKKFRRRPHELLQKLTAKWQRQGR
Experiment [13] deals with T11, BDKRB1 (Homo sapiens, UniProt P46663).
T11 construct: purchased Eurofins DiscoverX (PathHunter gpcrMAX)
T11 sequence (P46663 whole entry): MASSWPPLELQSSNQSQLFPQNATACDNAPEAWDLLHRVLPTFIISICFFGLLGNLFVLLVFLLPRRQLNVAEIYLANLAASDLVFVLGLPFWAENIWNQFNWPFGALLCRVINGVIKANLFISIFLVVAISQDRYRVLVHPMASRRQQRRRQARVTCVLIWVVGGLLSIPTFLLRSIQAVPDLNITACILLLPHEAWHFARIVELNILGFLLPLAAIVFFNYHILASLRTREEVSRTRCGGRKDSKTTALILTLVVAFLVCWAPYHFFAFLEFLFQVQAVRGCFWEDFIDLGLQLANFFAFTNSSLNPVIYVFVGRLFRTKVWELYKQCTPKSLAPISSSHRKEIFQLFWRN
Conditions: screen, control agonist; CHO, 37C, 2HR.

For experiment [14], the target named is T12, NPSR1b (Homo sapiens, UniProt Q6W5P4).
T12 construct: purchased Eurofins DiscoverX (PathHunter gpcrMAX)
T12 sequence (Q6W5P4 1-377 isoform Q6W5P4-4): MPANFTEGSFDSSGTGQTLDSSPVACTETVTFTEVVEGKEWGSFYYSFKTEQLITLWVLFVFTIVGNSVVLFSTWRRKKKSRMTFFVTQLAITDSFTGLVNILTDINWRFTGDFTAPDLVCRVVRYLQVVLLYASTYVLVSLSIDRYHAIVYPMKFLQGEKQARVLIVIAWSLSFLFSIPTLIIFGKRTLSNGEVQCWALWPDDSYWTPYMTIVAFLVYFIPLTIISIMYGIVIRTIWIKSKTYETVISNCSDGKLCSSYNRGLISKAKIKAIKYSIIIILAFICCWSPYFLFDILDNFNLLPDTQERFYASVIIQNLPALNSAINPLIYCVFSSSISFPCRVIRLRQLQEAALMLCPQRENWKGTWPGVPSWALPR
Conditions: screen, control agonist; U2OS, 37C, 2HR.

Experiment [15] has as its target T13, NPY1R (Homo sapiens, UniProt P25929).
T13 construct: purchased Eurofins DiscoverX (PathHunter gpcrMAX)
T13 sequence (P25929 1-384): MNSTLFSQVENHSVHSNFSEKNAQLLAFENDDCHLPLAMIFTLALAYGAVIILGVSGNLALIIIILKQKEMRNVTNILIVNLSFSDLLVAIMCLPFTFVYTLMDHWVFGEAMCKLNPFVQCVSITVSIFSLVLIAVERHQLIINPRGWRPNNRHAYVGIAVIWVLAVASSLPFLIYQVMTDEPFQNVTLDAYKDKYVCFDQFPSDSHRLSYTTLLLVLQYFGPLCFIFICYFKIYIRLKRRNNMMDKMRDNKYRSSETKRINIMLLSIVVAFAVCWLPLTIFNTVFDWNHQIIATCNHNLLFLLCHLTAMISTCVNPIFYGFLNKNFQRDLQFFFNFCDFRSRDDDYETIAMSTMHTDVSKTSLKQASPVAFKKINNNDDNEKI
Conditions: screen, control agonist; CHO, RT, 2HR.

For experiment [16], the target named is T14, PRLHR (Homo sapiens, UniProt P49683).
T14 construct: purchased Eurofins DiscoverX (PathHunter gpcrMAX)
T14 sequence (P49683 1-370): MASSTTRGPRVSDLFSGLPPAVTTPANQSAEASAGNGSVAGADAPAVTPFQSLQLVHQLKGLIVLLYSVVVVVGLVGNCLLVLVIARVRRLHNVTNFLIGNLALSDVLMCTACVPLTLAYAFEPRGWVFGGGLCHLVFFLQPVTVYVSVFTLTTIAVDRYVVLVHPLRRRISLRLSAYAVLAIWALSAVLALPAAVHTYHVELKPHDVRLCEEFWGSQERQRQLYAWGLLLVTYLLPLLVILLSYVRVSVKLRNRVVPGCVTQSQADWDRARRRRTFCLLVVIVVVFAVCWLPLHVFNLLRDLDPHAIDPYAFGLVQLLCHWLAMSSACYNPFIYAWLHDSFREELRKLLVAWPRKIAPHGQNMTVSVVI
As to conditions: screen, control agonist; CHO, 37C, 2HR.

The target of experiment [17] is T15, RXFP3 (Homo sapiens, UniProt Q9NSD7).
T15 construct: purchased Eurofins DiscoverX (PathHunter gpcrMAX)
T15 sequence (Q9NSD7 1-469): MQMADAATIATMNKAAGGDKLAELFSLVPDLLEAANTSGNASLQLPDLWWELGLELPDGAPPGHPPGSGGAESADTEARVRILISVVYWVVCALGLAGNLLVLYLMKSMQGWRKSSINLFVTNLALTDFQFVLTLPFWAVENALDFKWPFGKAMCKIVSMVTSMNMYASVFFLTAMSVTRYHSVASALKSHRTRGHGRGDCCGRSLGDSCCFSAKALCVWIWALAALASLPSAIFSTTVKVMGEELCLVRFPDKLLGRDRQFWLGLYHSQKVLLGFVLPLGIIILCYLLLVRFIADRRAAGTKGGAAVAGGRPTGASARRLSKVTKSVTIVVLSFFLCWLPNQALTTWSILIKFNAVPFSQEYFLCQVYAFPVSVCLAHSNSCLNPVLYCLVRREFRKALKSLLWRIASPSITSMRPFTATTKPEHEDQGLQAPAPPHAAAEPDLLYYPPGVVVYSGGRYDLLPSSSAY
Conditions: screen, control agonist; CHO, 37C, 2HR.

In experiment [18] the target is T16, TACR3 (Homo sapiens, UniProt P29371).
T16 construct: purchased Eurofins DiscoverX (PathHunter gpcrMAX)
T16 sequence (P29371 1-465): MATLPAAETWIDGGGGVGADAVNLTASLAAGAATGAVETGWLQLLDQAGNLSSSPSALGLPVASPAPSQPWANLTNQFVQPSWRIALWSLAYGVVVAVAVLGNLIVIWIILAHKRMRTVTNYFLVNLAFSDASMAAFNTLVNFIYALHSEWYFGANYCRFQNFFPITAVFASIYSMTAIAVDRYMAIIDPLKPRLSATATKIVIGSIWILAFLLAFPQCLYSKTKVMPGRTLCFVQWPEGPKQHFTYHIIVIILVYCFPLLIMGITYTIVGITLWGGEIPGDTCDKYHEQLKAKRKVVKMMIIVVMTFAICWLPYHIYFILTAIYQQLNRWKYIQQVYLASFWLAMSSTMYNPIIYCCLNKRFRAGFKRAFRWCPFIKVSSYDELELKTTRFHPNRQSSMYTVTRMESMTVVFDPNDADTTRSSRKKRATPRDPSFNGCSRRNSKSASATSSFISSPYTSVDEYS
Conditions: screen, control agonist; CHO, 37C, 2HR.

Experiment [19] has as its target T17, PTHR2 (Homo sapiens, UniProt P49190).
T17 construct: purchased Eurofins DiscoverX (PathHunter gpcrMAX)
Conditions: screen, control agonist; CHO, 37C, 2HR.

For experiment [20], the target named is T18, SSTR3 (Homo sapiens, UniProt P32745).
T18 construct: purchased Eurofins DiscoverX (PathHunter gpcrMAX)
As to conditions: screen, control agonist; CHO, 37C, 2HR.

Experiment [21] addresses T19, PROKR2 (Homo sapiens, UniProt Q8NFJ6).
T19 construct: purchased Eurofins DiscoverX (PathHunter gpcrMAX)
As to conditions: screen, control agonist; CHO, 37C, 2HR.

The target in experiment [22] is T20, PROKR1 (Homo sapiens, UniProt Q8TCW9).
T20 construct: purchased Eurofins DiscoverX (PathHunter gpcrMAX)
T20 sequence (Q8TCW9 whole entry): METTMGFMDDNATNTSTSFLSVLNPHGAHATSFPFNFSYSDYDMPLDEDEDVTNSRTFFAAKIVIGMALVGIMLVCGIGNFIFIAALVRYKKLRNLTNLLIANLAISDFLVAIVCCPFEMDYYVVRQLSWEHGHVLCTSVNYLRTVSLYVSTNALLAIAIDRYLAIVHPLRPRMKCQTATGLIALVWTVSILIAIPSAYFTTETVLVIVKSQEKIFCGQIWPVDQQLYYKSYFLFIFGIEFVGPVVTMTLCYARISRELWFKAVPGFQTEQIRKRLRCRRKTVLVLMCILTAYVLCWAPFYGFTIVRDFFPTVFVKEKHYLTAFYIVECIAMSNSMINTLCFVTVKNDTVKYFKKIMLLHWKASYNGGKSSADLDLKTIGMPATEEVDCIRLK
Conditions: screen, control agonist; CHO, 37C, 2HR.

The target of experiment [23] is T21, C5AR1 (Homo sapiens, UniProt P21730).
T21 construct: purchased Eurofins DiscoverX (PathHunter gpcrMAX)
T21 sequence (P21730 1-350): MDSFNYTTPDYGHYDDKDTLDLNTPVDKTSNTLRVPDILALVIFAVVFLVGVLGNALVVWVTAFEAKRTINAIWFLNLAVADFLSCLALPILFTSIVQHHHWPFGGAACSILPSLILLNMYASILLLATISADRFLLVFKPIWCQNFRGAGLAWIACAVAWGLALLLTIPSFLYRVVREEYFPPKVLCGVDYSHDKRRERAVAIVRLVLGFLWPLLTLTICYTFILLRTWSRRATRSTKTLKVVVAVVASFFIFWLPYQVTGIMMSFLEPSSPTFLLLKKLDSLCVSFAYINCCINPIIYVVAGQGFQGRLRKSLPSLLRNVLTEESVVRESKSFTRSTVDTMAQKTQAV
As to conditions: screen, control agonist; CHO, RT, 2HR.

The target in experiment [24] is T22, C5L2 (Homo sapiens, UniProt Q9P296).
T22 construct: purchased Eurofins DiscoverX (PathHunter gpcrMAX)
Conditions: screen, control agonist; CHO, 37C, 2HR.

T17 sequence (P49190 25-550): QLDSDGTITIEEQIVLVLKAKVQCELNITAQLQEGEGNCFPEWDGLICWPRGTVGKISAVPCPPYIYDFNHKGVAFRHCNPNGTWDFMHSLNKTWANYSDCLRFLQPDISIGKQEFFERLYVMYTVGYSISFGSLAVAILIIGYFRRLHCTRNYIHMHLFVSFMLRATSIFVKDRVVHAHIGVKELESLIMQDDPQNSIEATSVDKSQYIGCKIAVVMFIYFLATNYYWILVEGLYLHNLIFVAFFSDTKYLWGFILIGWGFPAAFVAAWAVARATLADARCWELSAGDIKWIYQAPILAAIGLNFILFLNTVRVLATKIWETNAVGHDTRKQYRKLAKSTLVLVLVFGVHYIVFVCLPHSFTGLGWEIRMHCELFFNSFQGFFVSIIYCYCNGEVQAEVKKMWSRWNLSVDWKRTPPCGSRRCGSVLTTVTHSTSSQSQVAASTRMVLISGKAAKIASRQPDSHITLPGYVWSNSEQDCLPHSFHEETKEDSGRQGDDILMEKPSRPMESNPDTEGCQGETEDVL

With `CC#CCC(C)[C@H](O)/C=C/[C@@H]1[C@H]2c3cccc(CCCC(=O)O)c3O[C@H]2C[C@H]1O` (mixture of isomers) [Beraprost], the 80% effect concentration (EC80) in experiment [1] was determined as 1.7 µM.

`CSc1nc(N)c2ncn([C@@H]3O[C@H](COP(=O)(O)OP(=O)(O)O)[C@@H](O)[C@H]3O)c2n1` [2-methylthio-ADP]: the EC80 in [2] is 0.00157 µM; in experiment [3] it was 0.0414 µM.

Consider `CCCCC/C=C\C/C=C\C/C=C\C=C\C(=O)CCCC(=O)O` [5-OxoETE], for which the EC80 in experiment [4] is 2.13 µM.

`Nc1ncnc2c1ncn2[C@@H]1O[C@H](COP(=O)(O)OP(=O)(O)OP(=O)(O)O)[C@@H](O)[C@H]1O` [ATP]: in [5], the EC80 came to 1290 µM.

The molecule `O=C(O)CCC/C=C\C[C@@H]1[C@@H](/C=C/[C@@H](O)COc2ccc(I)cc2)[C@H]2CC[C@@H]1O2` [I-BOP] had an EC80 in experiment [6] of 0.0291 µM.

In experiment [7], `CCCCCCCCCCCCCCCCOC[C@H](COP(=O)([O-])OCC[N+](C)(C)C)OC(C)=O` [PAF] had an EC80 of 0.019 µM.

As to `CCCCC[C@H](O)/C=C/[C@H]1[C@H](O)CC(=O)[C@@H]1C/C=C\CCCC(=O)O` [Prostaglandin E2], the EC80 in experiment [8] is 3.65 µM; in [9] (follow-up concentration-response assays), 0.00475 µM; in experiment [9] (screen, HEK, 37C, 2HR), 0.00358 µM.

Consider `O=c1ccn([C@@H]2O[C@H](COP(=O)(O)OP(=O)(O)OP(=O)(O)O)[C@@H](O)[C@H]2O)c(=O)[nH]1` [UTP], for which the EC80 in experiment [10] was 2.58 µM; in [11], 0.93 µM; in experiment [12], 0.225 µM.

Molecule LDA-Bradykinin yielded an EC80 in experiment [13] of 0.00467 µM.

In experiment [14], “Neuropeptide S (SFRNGVGTGMKKTSFQRAKS; Neuropeptide S; UniProt P0C0P6 70-89, looked up) [control agonist]” came in with an EC80 of 0.0457 µM.

Peptide YY: control agonist showed an EC80 in experiment [15] of 0.00418 µM. This counts as single-digit nanomolar.

PrRP-31: the EC80 in experiment [16] came to 0.0018 µM.

In turn, Relaxin-3 returned an EC80 in [17] of 0.0627 µM.

As to Substance P, the EC80 in experiment [18] was 0.0804 µM.

With TIP-39, the EC80 in experiment [19] was found to be 0.0048 µM.

Tyr-SST 14 registered an EC80 in experiment [20] of 0.0542 µM.

B1: EG VEGF: control agonist for PROKR1 and PROKR2 (protein, UniProt P58294 20-105, looked up)
Prokineticin-1: AVITGACERDVQCGAGTCCAISLWLRGLRMCTPLGREGEECHPGSHKVPFFRKRKHHTCPCLPNLLCSRFPDGRYRCSMDLKNINF
With B1, the values for the EC80 in experiment [21] and in experiment [22] were 0.0302 µM and 0.0533 µM, respectively.

B2: Complement C5a: control agonist (protein, UniProt P01031 678-751, looked up)
C5a anaphylatoxin: TLQKKIEEIAAKYKHSVVKKCCYDGACVNNDETCEQRAARISLGPRCIKAFTECCVVASQLRANISHKDMQLGR
modifications: C5a anaphylatoxin
notes: control agonist
Regarding B2, the EC80 in experiment [23] was 0.0036 µM; in experiment [24], 0.0027 µM.

The values above are taken from PMC9798004 (Frontiers in Psychiatry, 2022).
